Experimental data: BindingDB's records for doi:10.1111/cbdd.12443 (Northeastern University, 2015)
Counter-ions that a name gives are not always drawn.

biological target: T1, Phosphodiesterase (Trypanosoma brucei, UniProt Q8WQX9); test: TbrPDEB1 Enzyme Assay; conditions: pH 7.4
T1 sequence (Q8WQX9 whole entry): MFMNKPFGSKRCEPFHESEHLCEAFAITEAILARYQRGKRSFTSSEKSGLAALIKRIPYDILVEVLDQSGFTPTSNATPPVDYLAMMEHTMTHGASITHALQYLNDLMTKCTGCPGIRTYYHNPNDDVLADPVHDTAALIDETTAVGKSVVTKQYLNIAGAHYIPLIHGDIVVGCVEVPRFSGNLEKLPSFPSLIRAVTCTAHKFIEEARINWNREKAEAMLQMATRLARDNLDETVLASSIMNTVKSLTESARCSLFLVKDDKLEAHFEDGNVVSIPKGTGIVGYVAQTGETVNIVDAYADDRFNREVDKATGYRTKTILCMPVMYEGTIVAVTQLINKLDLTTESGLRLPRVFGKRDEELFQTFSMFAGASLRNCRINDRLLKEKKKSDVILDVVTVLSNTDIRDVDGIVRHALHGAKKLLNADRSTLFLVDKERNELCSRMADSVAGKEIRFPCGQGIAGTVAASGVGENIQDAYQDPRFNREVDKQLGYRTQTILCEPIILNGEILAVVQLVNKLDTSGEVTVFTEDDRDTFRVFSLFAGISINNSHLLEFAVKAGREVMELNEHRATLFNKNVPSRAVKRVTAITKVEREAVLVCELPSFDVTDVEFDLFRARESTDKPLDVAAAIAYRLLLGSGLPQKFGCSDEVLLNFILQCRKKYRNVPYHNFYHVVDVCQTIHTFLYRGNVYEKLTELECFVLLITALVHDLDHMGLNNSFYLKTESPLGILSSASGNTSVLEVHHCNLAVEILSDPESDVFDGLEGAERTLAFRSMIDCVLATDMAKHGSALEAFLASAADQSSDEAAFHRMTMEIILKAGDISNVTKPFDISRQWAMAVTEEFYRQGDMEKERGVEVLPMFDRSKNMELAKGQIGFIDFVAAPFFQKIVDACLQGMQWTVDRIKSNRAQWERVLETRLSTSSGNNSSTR
Protocol: In short, recombinant TbrPDEB1 and TbrPDEB2 were assayed in 10 mM Tris pH 7.4, bovine serum albumin (0.2 mg/mL), 10 mM MgCl2, 25µM cAMP (Enzo Lifesciences) and an excess of 5 endonucleotidase (>1000U) at 37 °C. Excess amount of 5 endonucleotidase was determined by titration (Enzo Lifesciences). Reactions were terminated by the addition of BioMol green (Enzo Lifesciences) which was also used to detect changes in the level of phosphate. This was measured by absorbance at 620 nm using a Tecan Sunrise plate reader. […] Inhibitors were preincubated with the assay mixture for 5 min prior to the addition of substrate. Inhibition was determined by the change in the initial velocity relative to a vehicle only control for both compound screening and for the determination of IC50 values. Initial velocity was determined by linear regression and IC50 values were calculated

Cc1cc(-c2cccc(-c3ncco3)c2)cc2c(NC3CCCC3)c(C(N)=O)cnc12 [4-(Cyclopentylamino)-8-methyl-6-(3-(oxazol-2-yl)phenyl)quinoline-3-carboxamide (28)] and COc1cccc(Nc2c(C(N)=O)cnc3c(C)cc(-c4cccc(-c5ncco5)c4)cc23)c1 [4-((3-Methoxyphenyl)amino)-8-methyl-6-(3-(oxazol-2-yl)phenyl)quinoline-3-carboxamide (17p)] are the same in IC50: 5.9 µM for the first, 5.9 µM for the second.

First: COC(=O)c1cccc(S(=O)(=O)c2cc(C)c3ncc(C(N)=O)c(Nc4cccc(OC)c4)c3c2)c1 [Methyl 3-(3-carbamoyl-4-(3-methoxyphenylamino)-8-methylquinolin-6-ylsulfonyl)benzoate (10a)]
Second: CNC(=O)c1cccc(S(=O)(=O)c2cc(C)c3ncc(C(N)=O)c(Nc4cccc(OC)c4)c3c2)c1 [4-(3-methoxyphenylamino)-8-methyl-6-(3-(methylcarbamoyl)phenylsulfonyl)quinoline-3-carboxamide (12b)]
The IC50 of the first is 8.9-fold lower: 3.5 µM for the first, 31 µM for the second.

Going from COc1cccc(Nc2c(C(N)=O)cnc3c(C)cc(S(=O)(=O)c4cccc(C(=O)O)c4)cc23)c1 [3-(3-carbamoyl-4-(3-methoxyphenylamino)-8-methylquinolin-6-ylsulfonyl)benzoic acid (11)] to COc1cccc(Nc2c(C(N)=O)cnc3c(C)cc(S(=O)(=O)c4cccc(C(=O)N(C)C)c4)cc23)c1 [GSK-256066], the IC50 rises from 2.9 µM to 24 µM (8.3-fold). The first is the more potent here.

Cc1cccc(Nc2c(C(N)=O)cnc3c(C)cc(-c4ccc5cnn(C)c5c4)cc23)c1 [8-Methyl-6-(1-methyl-1H-indazol-6-yl)-4-(m-tolylamino)quinoline-3-carboxamide (24e)] and CCOc1cccc(Nc2c(C(N)=O)cnc3c(C)cc(-c4ccc5cnn(C)c5c4)cc23)c1 [4-((3-Ethoxyphenyl)amino)-8-methyl-6-(1-methyl-1H-indazol-6-yl)quinoline-3-carboxamide (24c)] are within 1.5-fold of each other in IC50: 3.5 µM for the first, 4.2 µM for the second.

COC(=O)c1cccc(-c2cc(C)c3ncc(C(N)=O)c(Nc4cccnc4)c3c2)c1 [Methyl 3-(3-carbamoyl-8-methyl-4-(pyridin-3-ylamino)quinolin-6-yl)benzoate (22f)] and COC(=O)c1cccc(-c2cc(C)c3ncc(C(N)=O)c(NCc4ccccc4)c3c2)c1 [Methyl 3-(4-(benzylamino)-3-carbamoyl-8-methylquinolin-6-yl)benzoate (22c)] are within 1.5-fold of each other in IC50: 26 µM for the first, 28 µM for the second.

Compared with COc1cccc(Nc2c(C(N)=O)cnc3c(C)cc(-c4cccc(N5CCOCC5)c4)cc23)c1 [4-((3-Methoxyphenyl)amino)-8-methyl-6-(3-morpholinophenyl)quinoline-3-carboxamide (17s)], COc1cccc(Nc2c(C(N)=O)cnc3c(C)cc(-c4cccc(N)c4)cc23)c1 [6-(3-Aminophenyl)-4-((3-methoxyphenyl)amino)-8-methylquinoline-3-carboxamide (17f)] is 1.9-fold higher in IC50: 12 µM for the first, 23 µM for the second. The first is the more potent here.

First: COc1cccc(Nc2c(C(N)=O)cnc3ccc(-c4ccc5cnn(C)c5c4)cc23)c1 [4-((3-Methoxyphenyl)amino)-6-(1-methyl-1H-indazol-6-yl)quinoline-3-carboxamide (19b)]
Second: CCc1cc(-c2ccc3cnn(C)c3c2)cc2c(Nc3cccc(OC)c3)c(C(N)=O)cnc12 [8-Ethyl-4-((3-methoxyphenyl)amino)-6-(1-methyl-1H-indazol-6-yl)quinoline-3-carboxamide (19c)]
The IC50 of the first is 3.2-fold higher: 12 µM for the first, 3.7 µM for the second.

COc1cccc(Nc2c(C(N)=O)cnc3c(C)cc(-c4cccc(-c5nnc(C)s5)c4)cc23)c1 [4-((3-Methoxyphenyl)amino)-8-methyl-6-(3-(5-methyl-1,3,4-thiadiazol-2-yl)phenyl) quinoline-3-carboxamide, formic acid salt (17o)] and COc1cccc(Nc2c(C(N)=O)cnc3c(C)cc(-c4cccc(-c5nnn[nH]5)c4)cc23)c1 [6-(3-(1H-Tetrazol-5-yl)phenyl)-4-((3-methoxyphenyl)amino)-8-methylquinoline-3-carboxamide (17m)] are within 1.5-fold of each other in IC50: 6 µM for the first, 6.7 µM for the second.

First: COc1cccc(Nc2c(C(N)=O)cnc3c(C)cc(-c4cn[nH]c4)cc23)c1 [4-((3-Methoxyphenyl)amino)-8-methyl-6-(1H-pyrazol-4-yl)quinoline-3-carboxamide  (17j)]
Second: COc1cccc(Nc2c(C(N)=O)cnc3c(C)cc(-c4ccc5[nH]ccc5c4)cc23)c1 [6-(1H-Indol-5-yl)-4-((3-methoxyphenyl)amino)-8-methylquinoline-3-carboxamide (17t)]
The IC50 of the first is 1.5-fold higher: 9 µM for the first, 5.9 µM for the second.

Compared with COc1ccc(Nc2c(C(N)=O)cnc3c(C)cc(-c4ccc5cnn(C)c5c4)cc23)cc1C [4-(4-Methoxy-3-methylphenylamino)-8-methyl-6-(1-methyl-1H-indazol-6-yl)quinoline-3-carboxamide, formic acid salt (24f)], COC(=O)c1cccc(Nc2cc(C)c3ncc(C(N)=O)c(Nc4cccc(OC)c4)c3c2)c1 [Methyl 3-(3-carbamoyl-4-(3-methoxyphenylamino)-8-methylquinolin-6-ylamino)benzoate (13)] is 4.3-fold higher in IC50: 3.7 µM for the first, 16 µM for the second.
